Reference: patent US12660819B2, “Herbicidal derivatives” (SYNGENTA CROP PROTECTION AG, priority 2020, dated 2026)

Columns and labels:
Format in all cases: in vivo
[1] = test system: Amaranthus retoflexus (AMARE); test: Post-emergence Test (glasshouse, percentage damage to the plant); details: post-emergence spray, 1000 g/ha unless otherwise stated, evaluated after 13 days
Outline: (§1)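 Compound formulated in 50:50 acetone/water with 0.5% Tween 20 was diluted to an aqueous spray and applied at 1000 g/ha, unless otherwise stated, onto sown pots. Evaluation after 13 days gave percentage damage, banded into a 1–5 score.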

[2] = test system: Echinochloa crus-galli (ECHCG); test: as above; details: post-emergence spray, 1000 g/ha unless otherwise stated, evaluated after 13 days
Outline: as §1

[3] = test system: Ipomoea hederacea (IPOHE); test: as above; details: post-emergence spray, 1000 g/ha unless otherwise stated, evaluated after 13 days
Outline: (§2)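 Scored 13 days after spraying as percentage plant damage in five bands (5=81–100%, 4=61–80%, 3=41–60%, 2=21–40%, 1=0–20%). Spray at 1000 g/ha unless stated, in acetone/water 50:50 plus 0.5% Tween 20, onto sown glasshouse pots (24/16 °C, 14 h light, 65% humidity).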

Lolium perenne (LOLPE) [4] = test: as above; details: post-emergence spray, 1000 g/ha unless otherwise stated, evaluated after 13 days
Outline: as §1

Setaria faberi (SETFA) [5] = test: as above; details: post-emergence spray, 1000 g/ha unless otherwise stated, evaluated after 13 days
Outline: as §2

Solanum nigrum (SOLNI) [6] = test: as above; details: post-emergence spray, 1000 g/ha unless otherwise stated, evaluated after 13 days
Outline: as §1

[7] = test system: Amaranthus retoflexus (AMARE); test: Pre-emergence Test (glasshouse, percentage damage to the plant); details: 1000 g/ha unless otherwise stated, five-point scale
Solanum nigrum (SOLNI) [8] = test: as above; details: 1000 g/ha unless otherwise stated, five-point scale
Setaria faberi (SETFA) [9] = test: as above; details: 1000 g/ha unless otherwise stated, five-point scale
Lolium perenne (LOLPE) [10] = test: as above; details: 1000 g/ha unless otherwise stated, five-point scale
[11] = test system: Echinochloa crus-galli (ECHCG); test: as above; details: 1000 g/ha unless otherwise stated, five-point scale
[12] = test system: Ipomoea hederacea (IPOHE); test: as above; details: 1000 g/ha unless otherwise stated, five-point scale

Row | Structure (SMILES) | Post-emergence Test AMARE, percentage damage to the plant (five-point scale) [1] | Post-emergence Test ECHCG, percentage damage to the plant (five-point scale) [2] | Post-emergence Test IPOHE, percentage damage to the plant (five-point scale) [3] | Post-emergence Test LOLPE, percentage damage to the plant (five-point scale) (Lolium perenne (LOLPE) [4]) | Post-emergence Test SETFA, percentage damage to the plant (five-point scale) (Setaria faberi (SETFA) [5]) | Post-emergence Test SOLNI, percentage damage to the plant (five-point scale) (Solanum nigrum (SOLNI) [6]) | percentage damage to the plant, AMARE [7] | percentage damage to the plant, SOLNI (Solanum nigrum (SOLNI) [8]) | percentage damage to the plant, SETFA (Setaria faberi (SETFA) [9]) | percentage damage to the plant, LOLPE (Lolium perenne (LOLPE) [10]) | percentage damage to the plant, ECHCG [11] | percentage damage to the plant, IPOHE [12]
1 | CCn1c(C)c(-c2cscc2C)c(=O)c(C(=O)O)c1-c1ccc(Cl)c(Cl)c1 [Compound 20, 2-(3,4-dichlorophenyl)-1-ethyl-6-methyl-5-(4-methyl-3-thienyl)-4-oxo-pyridine-3-carboxylic acid] | 4 (4=61-80%) | 3 (3=41-60%) | 2 (2=21-40%) | 2 (2=21-40%) | 4 (4=61-80%) | 3 (3=41-60%) | 1 (1=0-20%) | 2 (2=21-40%) | 4 (4=61-80%) | 3 (3=41-60%) | 2 (2=21-40%) | 1 (1=0-20%)
2 | CCn1c(C)c(-c2ccc(F)c(Cl)c2)c(=O)c(C(=O)O)c1-c1ccc(Cl)c(Cl)c1 [Compound 22, 5-(3-chloro-4-fluoro-phenyl)-2-(3,4-dichlorophenyl)-1-ethyl-6-methyl-4-oxo-pyridine-3-carboxylic acid] | 5 (5=81-100%) | 2 (2=21-40%) | 3 (3=41-60%) | 2 (2=21-40%) | 4 (4=61-80%) | 4 (4=61-80%) | 2 (2=21-40%) | 2 (2=21-40%) | 3 (3=41-60%) | 2 (2=21-40%) | 1 (1=0-20%) | 1 (1=0-20%)
3 | CCn1c(C)c(-c2cncc(Cl)c2)c(=O)c(C(=O)O)c1-c1ccc(Cl)c(Cl)c1 [Compound 23, 5-(5-chloro-3-pyridyl)-2-(3,4-dichlorophenyl)-1-ethyl-6-methyl-4-oxo-pyridine-3-carboxylic acid] | 3 (3=41-60%) | 3 (3=41-60%) | 3 (3=41-60%) | 1 (1=0-20%) | 4 (4=61-80%) | 1 (1=0-20%) | 1 (1=0-20%) | 1 (1=0-20%) | 5 (5=81-100%) | 1 (1=0-20%) | 1 (1=0-20%) | 1 (1=0-20%)
4 | CCn1c(C)c(-c2ccccc2)c(=O)c(C(=O)O)c1-c1ccc(Cl)c(Cl)c1 [Compound 24, 2-(3,4-dichlorophenyl)-1-ethyl-6-methyl-4-oxo-5-phenyl-pyridine-3-carboxylic acid] | 4 (4=61-80%) | 3 (3=41-60%) | 4 (4=61-80%) | 4 (4=61-80%) | 4 (4=61-80%) | 5 (5=81-100%) | 1 (1=0-20%) | 5 (5=81-100%) | 1 (1=0-20%) | 2 (2=21-40%) | 2 (2=21-40%) | 4 (4=61-80%)
5 | CCn1c(C)c(-c2ccncc2)c(=O)c(C(=O)O)c1-c1ccc(Cl)c(Cl)c1 [Compound 25, 2-(3,4-dichlorophenyl)-1-ethyl-6-methyl-4-oxo-5-pyridin-1-ium-4-yl-pyridine-3-carboxylic acid;2,2,2-trifluoroacetate] | 3 (3=41-60%) | 4 (4=61-80%) | 2 (2=21-40%) | 1 (1=0-20%) | 4 (4=61-80%) | 2 (2=21-40%) | 1 (1=0-20%) | 1 (1=0-20%) | 3 (3=41-60%) | 1 (1=0-20%) | 1 (1=0-20%) | 1 (1=0-20%)
